Laboratory results published in patent US20090018134A1, “Compounds - 945” (AstraZeneca AB, priority 2007, published 2009).

The molecules below were run against T1, mTOR (Homo sapiens, UniProt P42345) (assay: In Vitro mTOR Kinase Assay (Echo), Test (a)(ii)). Conditions: table of enzyme assay Test (a)(ii); read-out: Test (a)(ii) IC50.
T1 construct: FLAG; made in house
Type: biochemical
In short: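 Inhibition expressed as IC50 from an AlphaScreen read-out: phospho-T389 p70 S6K antibody plus streptavidin donor/protein A acceptor beads, left overnight in the dark. The kinase reaction ran 2 h at room temperature, then was stopped with EDTA. Enzyme: FLAG-purified mTOR 1362-2549 fragment from stable HEK293 cells.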

T1 sequence (P42345 1362-2549): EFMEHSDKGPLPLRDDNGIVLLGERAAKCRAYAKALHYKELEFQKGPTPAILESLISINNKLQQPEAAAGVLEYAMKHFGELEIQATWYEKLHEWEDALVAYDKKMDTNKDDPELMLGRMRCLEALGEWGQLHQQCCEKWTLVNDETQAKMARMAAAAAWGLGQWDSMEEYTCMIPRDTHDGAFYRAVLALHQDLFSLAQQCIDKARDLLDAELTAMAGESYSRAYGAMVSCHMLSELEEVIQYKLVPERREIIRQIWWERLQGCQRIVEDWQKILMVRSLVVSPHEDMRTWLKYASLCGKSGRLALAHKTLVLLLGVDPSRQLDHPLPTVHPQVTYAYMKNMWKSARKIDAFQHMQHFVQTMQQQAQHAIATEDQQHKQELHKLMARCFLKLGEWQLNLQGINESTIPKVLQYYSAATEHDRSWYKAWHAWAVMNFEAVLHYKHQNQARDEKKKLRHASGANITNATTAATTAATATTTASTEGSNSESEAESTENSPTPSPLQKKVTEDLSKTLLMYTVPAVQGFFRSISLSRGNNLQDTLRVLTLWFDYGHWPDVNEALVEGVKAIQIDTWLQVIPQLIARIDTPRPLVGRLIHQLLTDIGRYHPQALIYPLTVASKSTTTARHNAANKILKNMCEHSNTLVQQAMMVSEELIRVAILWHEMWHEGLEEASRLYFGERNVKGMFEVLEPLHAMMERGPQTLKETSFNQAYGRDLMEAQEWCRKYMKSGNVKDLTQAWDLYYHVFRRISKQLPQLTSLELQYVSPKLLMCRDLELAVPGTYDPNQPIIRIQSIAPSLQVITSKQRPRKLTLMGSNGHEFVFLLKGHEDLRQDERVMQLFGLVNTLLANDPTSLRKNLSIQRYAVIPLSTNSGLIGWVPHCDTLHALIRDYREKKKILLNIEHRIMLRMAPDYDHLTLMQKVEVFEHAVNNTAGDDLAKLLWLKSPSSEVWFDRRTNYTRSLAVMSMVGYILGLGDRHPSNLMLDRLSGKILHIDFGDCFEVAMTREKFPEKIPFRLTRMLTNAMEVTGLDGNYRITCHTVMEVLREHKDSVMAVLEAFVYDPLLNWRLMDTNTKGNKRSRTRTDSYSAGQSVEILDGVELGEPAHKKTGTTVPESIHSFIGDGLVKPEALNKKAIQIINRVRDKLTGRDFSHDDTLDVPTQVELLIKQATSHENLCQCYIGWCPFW

| Compound | IC50 [nM] |
| --- | --- |
| CCS(=O)(=O)C1(c2cc(N3CCOC[C@@H]3C)nc(-c3ccc(NC(=S)NCCO)cc3)n2)CCC1 [Example 88a, 1-[4-[4-(1-ethylsulfonylcyclobutyl)-6-[(3S)-3-methylmorpholin-4-yl]pyrimidin-2-yl]phenyl]-3-(2-hydroxyethyl)thiourea] | 4.48 |
| CCS(=O)(=O)C1(c2cc(N3CCOC[C@@H]3C)nc(-c3ccc(NC(=S)NCc4ncc[nH]4)cc3)n2)CCC1 [Example 88b, 1-[4-[4-(1-ethylsulfonylcyclobutyl)-6-[(3S)-3-methylmorpholin-4-yl]pyrimidin-2-yl]phenyl]-3-(1H-imidazol-2-ylmethyl)thiourea] | 56.7 |
| CCS(=O)(=O)C1(c2cc(N3CCOC[C@@H]3C)nc(-c3ccc(NC(=S)NCCCO)cc3)n2)CC1 [Example 88c, 1-[4-[4-(1-ethylsulfonylcyclopropyl)-6-[(3S)-3-methylmorpholin-4-yl]pyrimidin-2-yl]phenyl]-3-(3-hydroxypropyl)thiourea] | 47 |
| CCS(=O)(=O)C1(c2cc(N3CCOC[C@@H]3C)nc(-c3ccc(NC(=S)NCCO)cc3)n2)CC1 [Example 88d, 1-[4-[4-(1-ethylsulfonylcyclopropyl)-6-[(3S)-3-methylmorpholin-4-yl]pyrimidin-2-yl]phenyl]-3-(2-hydroxyethyl)thiourea] | 4 |
| CCNC(=O)Nc1ccc(-c2nc(N3CCOCC3C(N)=O)cc(C3(S(=O)(=O)c4ccccc4)CC3)n2)cc1 (centres unmarked) [Example 89, 4-[6-[1-(Benzenesulfonyl)cyclopropyl]-2-[4-(ethylcarbamoylamino)phenyl]pyrimidin-4-yl]morpholine-3-carboxamide] | 485 |
| CCNC(=O)Nc1ccc(-c2nc(N3CCOCC3C(=O)N(C)C)cc(C3(S(=O)(=O)c4ccccc4)CC3)n2)cc1 (centres unmarked) [Example 90, 4-[6-[1-(Benzenesulfonyl)cyclopropyl]-2-[4-(ethylcarbamoylamino)phenyl]pyrimidin-4-yl]-N,N-dimethylmorpholine-3-carboxamide] | 18.9 |
| C[C@H]1COC[C@H](C)N1c1cc(C2(S(C)(=O)=O)CC2)nc(-c2ccc(NC(=O)NC3CC3)cc2)n1 [Example 91, 3-Cyclopropyl-1-[4-[4-[(3S,5S)-3,5-dimethylmorpholin-4-yl]-6-(1-methylsulfonylyclopropyl)pyrimidin-2-yl]phenyl]urea] | 4.98 |
| CNC(=O)Nc1ccc(-c2nc(N3[C@@H](C)COC[C@@H]3C)cc(C3(S(C)(=O)=O)CC3)n2)cc1 [Example 91a, 1-[4-[4-[(3S,5S)-3,5-dimethylmorpholin-4-yl]-6-(1-methylsulfonylcyclopropyl)pyrimidin-2-yl]phenyl]-3-methylurea] | 1.98 |
| CCNC(=O)Nc1ccc(-c2nc(N3[C@@H](C)COC[C@@H]3C)cc(C3(S(C)(=O)=O)CC3)n2)cc1 [Example 91b, 1-[4-[4-[(3S,5S)-3,5-dimethylmorpholin-4-yl]-6-(1-methylsulfonylcyclopropyl)pyrimidin-2-yl]phenyl]-3-ethylurea] | 5.21 |
| C[C@H]1COC[C@H](C)N1c1cc(C2(S(C)(=O)=O)CC2)nc(-c2ccc(NC(=O)NCCF)cc2)n1 [Example 91c, 1-[4-[4-[(3S,5S)-3,5-dimethylmorpholin-4-yl]-6-(1-methylsulfonylcyclopropyl)pyrimidin-2-yl]phenyl]-3-(2-fluoroethyl)urea] | 3.68 |
| C[C@H]1COC[C@H](C)N1c1cc(C2(S(C)(=O)=O)CC2)nc(-c2ccc(NC(=O)NCCO)cc2)n1 [Example 91d, 1-[4-[4-[(3S,5S)-3,5-dimethylmorpholin-4-yl]-6-(1-methylsulfonylcyclopropyl)pyrimidin-2-yl]phenyl]-3-(2-hydroxyethyl)urea] | 3.56 |
| C[C@H]1COC[C@H](C)N1c1cc(C2(S(=O)(=O)C3CC3)CC2)nc(-c2ccc(NC(=O)NC3CC3)cc2)n1 [Example 92, 3-Cyclopropyl-1-[4-[4-(1-cyclopropylsulfonylcyclopropyl)-6-[(3S,5S)-3,5-dimethylmorpholin-4-yl]pyrimidin-2-yl]phenyl]urea] | 7.93 |
| C[C@H]1COC[C@H](C)N1c1cc(C2(S(=O)(=O)C3CC3)CC2)nc(-c2ccc(NC(=O)NCC(F)F)cc2)n1 [Example 92a, 1-[4-[4-(1-cyclopropylsulfonylcyclopropyl)-6-[(3S,5S)-3,5-dimethylmorpholin-4-yl]pyrimidin-2-yl]phenyl]-3-(2,2-difluoroethyl)urea] | 5.51 |
| C[C@H]1COC[C@H](C)N1c1cc(C2(S(=O)(=O)C3CC3)CC2)nc(-c2ccc(NC(=O)Nc3cnn(C)c3)cc2)n1 [Example 92b, 1-[4-[4-(1-cyclopropylsulfonylcyclopropyl)-6-[(3S,5S)-3,5-dimethylmorpholin-4-yl]pyrimidin-2-yl]phenyl]-3-(1-methylpyrazol-4-yl)urea] | 7.46 |
| CNC(=O)Nc1ccc(-c2nc(N3[C@@H](C)COC[C@@H]3C)cc(C3(S(=O)(=O)C4CC4)CC3)n2)cc1 [Example 92c, 1-[4-[4-(1-cyclopropylsulfonylcyclopropyl)-6-[(3S,5)-3,5-dimethylmorpholin-4-yl]pyrimidin-2-yl]phenyl]-3-methylurea] | 7.8 |
| CCNC(=O)Nc1ccc(-c2nc(N3[C@@H](C)COC[C@@H]3C)cc(C3(S(=O)(=O)C4CC4)CC3)n2)cc1 [Example 92d, 1-[4-[4-(1-cyclopropylsulfonylcyclopropyl)-6-[(3S,5S)-3,5-dimethylmorpholin-4-yl]pyrimidin-2-yl]phenyl]-3-ethylurea] | 8.07 |
| C[C@H]1COC[C@H](C)N1c1cc(C2(S(=O)(=O)C3CC3)CC2)nc(-c2ccc(NC(=O)NCCF)cc2)n1 [Example 92e, 1-[4-[4-(1-cyclopropylsulfonylcyclopropyl)-6-[(3S,5S)-3,5-dimethylmorpholin-4-yl]pyrimidin-2-yl]phenyl]-3-(2-fluoroethyl)urea] | 5.99 |
| C[C@H]1COC[C@H](C)N1c1cc(C2(S(=O)(=O)C3CC3)CC2)nc(-c2ccc(NC(=O)NCCO)cc2)n1 [Example 92f, 1-[4-[4-(1-cyclopropylsulfonylcyclopropyl)-6-[(3S,5S)-3,5-dimethylmorpholin-4-yl]pyrimidin-2-yl]phenyl]-3-(2-hydroxyethyl)urea] | 6.25 |
| C[C@H]1COC[C@H](C)N1c1cc(C2(S(=O)(=O)c3ccccc3)CC2)nc(-c2ccc(NC(=O)NC3CC3)cc2)n1 [Example 93, 1-[4-[4-[1-(Benzenesulfonyl)cyclopropyl]-6-[(3S,5S)-3,5-dimethylmorpholin-4-yl]pyrimidin-2-yl]phenyl]-3-cyclopropylurea] | 5.05 |

Further lines, results first:

| IC50 [nM] | Compound |
| --- | --- |
| 3.03 | CNC(=O)Nc1ccc(-c2nc(N3[C@@H](C)COC[C@@H]3C)cc(C3(S(=O)(=O)c4ccccc4)CC3)n2)cc1 [Example 93a, 1-[4-[4-[1-(benzenesulfonyl)cyclopropyl]-6-[(3S,5S)-3,5-dimethylmorpholin-4-yl]pyrimidin-2-yl]phenyl]-3-methylurea] |
| 2.3 | C[C@H]1COC[C@H](C)N1c1cc(C2(S(=O)(=O)c3ccccc3)CC2)nc(-c2ccc(NC(=O)NCCO)cc2)n1 [Example 93b, 1-[4-[4-[1-(benzenesulfonyl)cyclopropyl]-6-[(3S,5S)-3,5-dimethylmorpholin-4-yl]pyrimidin-2-yl]phenyl]-3-(2-hydroxyethyl)urea] |
| 2.9 | C[C@H]1COC[C@H](C)N1c1cc(C2(S(=O)(=O)c3ccccc3)CC2)nc(-c2ccc(NC(=O)NCCF)cc2)n1 [Example 93c, 1-[4-[4-[1-(benzenesulfonyl)cyclopropyl]-6-[(3S,5S)-3,5-dimethylmorpholin-4-yl]pyrimidin-2-yl]phenyl]-3-(2-fluoroethyl)urea] |
| 0.818 | C[C@H]1COC[C@H](C)N1c1cc(C2(S(=O)(=O)c3ccccc3)CC2)nc(-c2ccc(NC(=O)NCC(F)F)cc2)n1 [Example 93d, 1-[4-[4-[1-(benzenesulfonyl)cyclopropyl]-6-[(3S,5S)-3,5-dimethylmorpholin-4-yl]pyrimidin-2-yl]phenyl]-3-(2,2-difluoroethyl)urea] |
| 5.41 | C[C@H]1COC[C@H](C)N1c1cc(C2(S(=O)(=O)c3ccccc3)CC2)nc(-c2ccc(NC(=O)Nc3cnn(C)c3)cc2)n1 [Example 93e, 1-[4-[4-[1-(benzenesulfonyl)cyclopropyl]-6-[(3S,5S)-3,5-dimethylmorpholin-4-yl]pyrimidin-2-yl]phenyl]-3-(1-methylpyrazol-4-yl)urea] |
| 13.6 | CNC(=O)Nc1ccc(-c2nc(N3CCOC[C@@H]3C)cc(C3(S(=O)(=O)C4CCOCC4)CC3)n2)cc1 [Example 94a, 3-methyl-1-[4-[4-[(3S)-3-methylmorpholin-4-yl]-6-[1-(oxan-4-ylsulfonyl)cyclopropyl]pyrimidin-2-yl]phenyl]urea] |
| 12.2 | CCNC(=O)Nc1ccc(-c2nc(N3CCOC[C@@H]3C)cc(C3(S(=O)(=O)C4CCOCC4)CC3)n2)cc1 [Example 94b, 1-ethyl-3-[4-[4-[(3S)-3-methylmorpholin-4-yl]-6-[1-(oxan-4-ylsulfonyl)cyclopropyl]pyrimidin-2-yl]phenyl]urea] |
| 11.8 | C[C@H]1COCCN1c1cc(C2(S(=O)(=O)C3CCOCC3)CC2)nc(-c2ccc(NC(=O)NC3CC3)cc2)n1 [Example 94c, 3-cyclopropyl-1-[4-[4-[(3S)-3-methylmorpholin-4-yl]-6-[1-(oxan-4-ylsulfonyl)cyclopropyl]pyrimidin-2-yl]phenyl]urea] |
| 11 | C[C@H]1COCCN1c1cc(C2(S(=O)(=O)C3CCOCC3)CC2)nc(-c2ccc(NC(=O)NCCO)cc2)n1 [Example 94d, 3-(2-hydroxyethyl)-1-[4-[4-[(3S)-3-methylmorpholin-4-yl]-6-[1-(oxan-4-ylsulfonyl)cyclopropyl]pyrimidin-2-yl]phenyl]urea] |
| 13.5 | C[C@H]1COCCN1c1cc(C2(S(=O)(=O)C3CCOCC3)CC2)nc(-c2ccc(NC(=O)Nc3cnn(C)c3)cc2)n1 [Example 94e, 1-[4-[4-[(3S)-3-methylmorpholin-4-yl]-6-[1-(oxan-4-ylsulfonyl)cyclopropyl]pyrimidin-2-yl]phenyl]-3-(1-methylpyrazol-4-yl)urea] |
